This note sets out measurements from ChEMBL document CHEMBL1123235, “Cholecystokinin antagonists. Synthesis of asperlicin analogues with improved potency and water solubility” (J Med Chem, 1986).

Bounds are passed on as bounds.

In the assay the target is T1, Cholecystokinin receptor (Rattus norvegicus, UniProt P30551+P30553).
T1 sequence (P30551 whole entry): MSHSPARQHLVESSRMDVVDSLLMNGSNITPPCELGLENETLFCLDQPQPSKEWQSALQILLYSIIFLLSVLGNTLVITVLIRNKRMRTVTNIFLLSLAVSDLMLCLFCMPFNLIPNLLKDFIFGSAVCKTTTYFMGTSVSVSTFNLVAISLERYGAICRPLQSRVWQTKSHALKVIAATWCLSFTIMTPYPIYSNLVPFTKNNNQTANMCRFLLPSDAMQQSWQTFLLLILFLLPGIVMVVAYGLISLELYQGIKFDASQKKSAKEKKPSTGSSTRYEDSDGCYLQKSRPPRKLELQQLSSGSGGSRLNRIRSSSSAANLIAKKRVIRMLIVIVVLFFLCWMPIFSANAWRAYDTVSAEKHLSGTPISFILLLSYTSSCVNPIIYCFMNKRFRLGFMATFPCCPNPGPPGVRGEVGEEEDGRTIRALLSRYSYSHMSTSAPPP
T1 sequence (P30553 whole entry): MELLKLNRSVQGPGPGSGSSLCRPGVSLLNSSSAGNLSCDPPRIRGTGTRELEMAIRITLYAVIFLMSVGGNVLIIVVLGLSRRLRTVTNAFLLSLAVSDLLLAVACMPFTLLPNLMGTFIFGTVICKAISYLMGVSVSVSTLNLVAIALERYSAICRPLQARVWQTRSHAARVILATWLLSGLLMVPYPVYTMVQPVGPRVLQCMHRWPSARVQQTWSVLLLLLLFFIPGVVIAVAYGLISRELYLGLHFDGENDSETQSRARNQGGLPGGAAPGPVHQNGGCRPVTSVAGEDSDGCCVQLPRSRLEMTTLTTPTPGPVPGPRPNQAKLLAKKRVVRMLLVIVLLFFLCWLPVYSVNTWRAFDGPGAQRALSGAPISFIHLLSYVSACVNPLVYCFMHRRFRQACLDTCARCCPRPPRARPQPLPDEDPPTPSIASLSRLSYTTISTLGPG
As to the kind of experiment: Inhibition of [125I]CCK binding to rat pancreatic Cholecystokinin receptor. Type of assay: protein assay.

The term IC50 denotes the concentration that inhibits the measured activity by half. A lower IC50 goes with inhibition by little substance. Turning to `CC(C)C[C@H]1C(=O)N2c3ccccc3[C@@](O)(C[C@@H]3NC(=O)c4ccccc4-n4c3nc3ccccc3c4=O)[C@H]2N1C(=O)CCC(=O)O`, the IC50 was above 100 µM.
Next, `CC(C)C[C@H]1C(=O)N2c3ccccc3[C@@](O)(C[C@@H]3NC(=O)c4ccccc4-n4c3nc3ccccc3c4=O)[C@H]2N1C(=O)OCc1ccccc1`: 5 µM; `CC(C)C[C@H]1C(=O)N2c3ccccc3[C@@](O)(C[C@@H]3NC(=O)c4ccccc4-n4c3nc3ccccc3c4=O)[C@H]2N1C(=O)C(Cc1ccc(O)cc1)NC(=O)OC(C)(C)C` (stereo partly drawn): 46 µM.
`CC(C)C[C@@H]1N[C@H]2N(C1=O)c1ccccc1[C@]2(C[C@@H]1NC(=O)c2ccccc2-n2c1nc1ccccc1c2=O)OC(=O)CCC(=O)O` yielded an IC50 of 85 µM.
The result for `CC(C)C[C@@H]1N[C@H]2N(C1=O)c1ccccc1[C@@]2(O)C[C@@H]1NC(=O)c2ccccc2-n2c1nc1ccccc1c2=O` [ASPERLICIN] reads […]; that for `CC(C)C[C@H]1C(=O)N2c3ccccc3[C@@](O)(C[C@@H]3NC(=O)c4ccccc4N4C(=O)c5ccccc5NC34)[C@H]2N1C(=O)C(CCCNC(=O)OCc1ccccc1)NC(=O)OC(C)(C)C` (stereo partly drawn), 1.3 µM; that for `CC(C)C[C@H]1C(=O)N2c3ccccc3[C@@](O)(C[C@@H]3NC(=O)c4ccccc4-n4c3nc3ccccc3c4=O)[C@H]2N1C(=O)C(CCCNC(=O)OCc1ccccc1)NC(=O)OC(C)(C)C` (stereo partly drawn), 4.3 µM.
Compound `CCN1[C@H]2N(C(=O)[C@@H]1CC(C)C)c1ccccc1[C@@]2(O)C[C@@H]1NC(=O)c2ccccc2N2C(=O)c3ccccc3NC12` (stereo partly drawn) came in with an IC50 of 0.4 µM.
For the compound `CC(C)C[C@H]1C(=O)N2c3ccccc3[C@@](O)(C[C@@H]3NC(=O)c4ccccc4N4C(=O)c5ccccc5NC34)[C@H]2N1CCCc1ccccc1` (stereo partly drawn), the IC50 came to 0.2 µM.
Next, `CC(C)C[C@H]1C(=O)N2c3ccccc3[C@@](O)(C[C@@H]3NC(=O)c4ccccc4-n4c3nc3ccccc3c4=O)[C@H]2N1C(=O)C(CCCCNC(=O)OCc1ccccc1)NC(=O)OC(C)(C)C` (stereo partly drawn): above 100 µM; `CC(C)C[C@H]1C(=O)N2c3ccccc3[C@@](O)(C[C@@H]3NC(=O)c4ccccc4N4C(=O)c5ccccc5NC34)[C@H]2N1C(=O)CCC(=O)[O-].[Na+]` (stereo partly drawn): 1 µM; `CC(C)C[C@H]1C(=O)N2c3ccccc3[C@](C[C@@H]3NC(=O)c4ccccc4N4C(=O)c5ccccc5NC34)(OC(=O)CCC(=O)OCc3ccccc3)[C@H]2N1C(=O)OCc1ccccc1` (stereo partly drawn): 100 µM.
Compound `CC(C)C[C@H]1C(=O)N2c3ccccc3[C@@](O)(C[C@@H]3NC(=O)c4ccccc4-n4c3nc3ccccc3c4=O)[C@H]2N1C(=O)C(Cc1ccc(OCc2ccccc2)cc1)NC(=O)OC(C)(C)C` (stereo partly drawn) displayed an IC50 above 100 µM.
The result for `CC(C)C[C@H]1C(=O)N2c3ccccc3[C@@](O)(C[C@@H]3NC(=O)c4ccccc4N4C(=O)c5ccccc5NC34)[C@H]2N1C(=O)CCC(=O)O` (stereo partly drawn) reads 4.3 µM; that for `CC(=O)N1[C@H]2N(C(=O)[C@@H]1CC(C)C)c1ccccc1[C@@]2(O)C[C@@H]1NC(=O)c2ccccc2-n2c1nc1ccccc1c2=O`, 22 µM; that for `CC(C)C[C@H]1C(=O)N2c3ccccc3[C@@](O)(C[C@@H]3NC(=O)c4ccccc4-n4c3nc3ccccc3c4=O)[C@H]2N1C(=O)C(N)CCCCN.Cl` (stereo partly drawn), 2.5 µM.
The compound `CC(C)C[C@H]1C(=O)N2c3ccccc3[C@](C[C@@H]3NC(=O)c4ccccc4-n4c3nc3ccccc3c4=O)(OC(=O)CCC(=O)OCc3ccccc3)[C@H]2N1C(=O)OCc1ccccc1` registered an IC50 of 100 µM.
On to `CC(C)C[C@@H]1N[C@H]2N(C1=O)c1ccccc1[C@@]2(O)C[C@@H]1NC(=O)c2ccccc2N2C(=O)c3ccccc3NC12` (stereo partly drawn), for which the half-inhibitory concentration (IC50) is 0.2 µM.
